Experimental data reported in patent US10100077B2, “6-aryl-9-glycosylpurines and use thereof” (UNIVERZITA PALACKEHO V OLOMOUCI, priority 2014, dated 2018).

How the values were obtained:
[1] = test system: Vaccinia virus and Herpes simplex virus; conditions: cited from earlier work
[2] = test system: Vaccinia virus, strain IHD; conditions: cited from earlier work
[3] = test system: breast cancer (MCF-7); assay: Calcein AM cytotoxicity assay, MCF-7; format: cell-based; conditions: 72 hrs
Description: (§1) One of the parameters used as the base for cytotoxic analysis is metabolic activity of viable cells, such as microtiter assay, which uses the Calcein AM, is now widely used to quantitate cell proliferation and cytotoxicity. The quantity of reduced Calcein AM corresponds to the number of viable cells in culture. The cell lines of breast cancer (MCF-7), mousse fibroblasts (NIH3T3), human erythromleukemia (K562) were used for routine screening of cytotoxicity of the compounds. The cells were maintened in Nunc/Corning 80 cm^2 plastic bottles and grown in media for cell culture (DMEM containing 5 g/l of glucose, 2 mM of glutamin, 100 U/ml of penicilin, […] of streptomycin, 10% of fetal bovine serum and sodium hydrogencarbonate). Cell suspensions were diluted according to cell types and according to expected final cell density (10^4 of cells per well according to characteristics of cell growth), pipetted 80 μl of cell suspension on 96-well microtiter plates. Innoculates were stabilized by 24 hrs preincubation at 37° C. in CO2. Particular concentrations of tested compounds were added in time zero as 20 μl aliquotto wells of microtiter plates. Usually, the compounds were diluted into six concentrations in four-fold dilution series. In routine testing, the highest well concentration was 166.7 μM, of change dependent on the substance. All drug concentrations were examined in duplicates. The incubation of cells with tested derivatives lasted 72 hrs at 37° C., 100% humidity and in the atmosphere of CO2. At the end of the incubation period, the cells were tested and analysed according to the addition of Calcein AM (Molecular probes) solution and the incubation lasted for next 1 hour. Fluorescence (FD) was measured using Labsystem FIA reader Fluorskan Ascent (Microsystems). The survival of tumor cells (The tumor cell survival-TCS) was counted according to equation: […]=(FDwell with derivative/FDcontrol well)×100%. The value of GI50, that is equal to the concentration of compound at which 50% of tumour cells are terminated. To evaluate the antitumor activity was tested toxicity of new derivatives on panel of cell lines of different histogenetic and species origin (Tab. 7, G150 concentration given in μM). […] Effective derivatives killed tumor cells in concentrations close to 0.1 to 50. None of the newly prepared compounds only reached the value.

[4] = test system: human erythromleukemia (K562); assay: Calcein AM cytotoxicity assay, K562; format: cell-based; conditions: 72 hrs
Description: as §1

[5] = test system: mousse fibroblasts (NIH3T3); assay: Calcein AM cytotoxicity assay, NIH3T3; format: cell-based, mouse; conditions: 72 hrs
Description: as §1

[6] = test system: skin fibroblasts BJ and keratinocytes HaCaT; assay: SRB in vitro toxicity test; format: cell-based; conditions: Homo sapiens, 72 hour treatment, maximal concentration 50 microM
Description: SRB (sulforhodamine B) assay is a standard toxicity test based on a photometric measurement of the cellular protein content after the staining with sulphorhodamine B. Using the assay, the effects of 72 hour treatments with several concentrations of the compounds (sixfold dilution, maximal concentration=50 microM) on viability of skin fibroblasts BJ and keratinocytes HaCaT were evaluated. About 5,000 cells were seeded per well of a 96-well plate 24 hours before the treatment. DMSO vehiculum was used as a negative non-toxic control. 6-benzylaminopurine riboside a 6-furfurylaminopurin riboside were used as positive toxic controls. After three days the medium was removed and the cells fixed with 10% (wt/vol) trichloroacetic acid. After the extensive washing in distilled water, 0.4% (wt/vol) solution of SRB in acetic acid was added and the fixed cells were stained for 30 minutes. The unbound stain was washed away by distilled water and the bound SRB was solubilized in unbuffered 10 mM Tris base. Absorbance was measured at 564 nm. IC50 values were calculated from dose-response curves.

[7] = test system: detached leaf segments of Triticum aestivum cv. Hereward; assay: Senescence bioassay on wheat leaf segments (chlorophyll retention); conditions: for activity (%) [10^−4 mol · l^−1 BAP = 100%]: chlorophyll retention at maximum effective concentration, 96 h dark
Description: Seeds of winter wheat, Triticum aestivum cv. Hereward, were washed under running water for 24 hours and then sown on vermiculite soaked with Knop's solution. They were placed in the growth chamber at 25° C. with a 16/8 h light period at 50 μmol·m^−2·s^−1. After 7 days, the first leaf was fully developed and the second leaf had started to grow. A tip section of the first leaf, approximately 35 mm long, was removed from 5 seedlings and trimmed slightly to a combined weight of 100 mg. The basal ends of the five leaf tips were placed in the wells of a microtiter polystyrene plate containing 150 μL, of the tested derivative solution each. The entire plate was inserted into a plastic box lined with paper tissues soaked in distilled water to prevent leaf sections from drying out. After 96 h incubation in the dark at 25° C., the leaves were removed and chlorophyll extracted by heating at 80° C. for 10 min in 5 mL of 80% ethanol (v/v). The sample volume was then restored to 5 mL by the addition of 80% ethanol (v/v). The absorbance of the extract was recorded at 665 nm. In addition, chlorophyll extracts from fresh leaves and leaf tips incubated in deionised water were measured. The results are means of five replicates and the entire test was repeated twice. […] The compounds to be tested were dissolved in dimethylsulfoxide (DMSO) and the solution brought up to 10^−3M with distilled water. This stock solution was further diluted with the respective media used for the biotest to a concentration ranging from 10^−8M to 10^−4M. […] The activity obtained for 10^−4 M of BAP was postulated as 100%.

[8] = test system: skin fibroblasts BJ and keratinocytes HaCaT; assay: MTT in vitro cytotoxicity test for skin cells; format: cell-based; conditions: for IC50: Homo sapiens, MTT, 72 hour treatment, BJ and HaCaT, maximal concentration 50 microM
Description: MTT assay is a standard test of toxicity based on photometric measurement of the ability of metabolically active cells to reduce MTT (3-(4,5-dimethylthiazol-2-yl)-2,5-diphenyltetrazolium bromide). Using the assay, the effects of 72 hour treatments with several concentrations of the compounds (sixfold dilution, maximal concentration=50 microM) on viability of skin fibroblasts BJ and keratinocytes HaCaT were evaluated. About 5,000 cells were seeded per well of a 96-well plate 24 hours before the treatment. DMSO vehiculum was used as a negative control. After 72 hour treatment, new medium with MTT (Sigma, M2128) was added to a final concentration of 0.5 mg/ml. After 3 hours, medium was removed and resulting formazan in the cells was dissolved in DMSO. The absorbance was measured at 570 nm (640 nm reference wavelength). The IC50 values were calculated from the dose-response curves. 6-Benzylaminopurine riboside and 6-furfurylaminopurine riboside were used as positive controls they were toxic in the MTT test.

[9] = Calcein AM cytotoxicity assay, MCF-7; format: cell-based; conditions: human, MCF-7 breast cancer cells
Description: as §1

[10] = Calcein AM cytotoxicity assay, K562; format: cell-based, human; conditions: human, K562 erythroleukemia cells
Description: as §1

[11] = Calcein AM cytotoxicity assay, NIH3T3; format: cell-based, mouse; conditions: mouse, NIH3T3 fibroblasts
Description: as §1

[12] = test system: EpiDERM 3D model of epidermis; assay: In vitro test of skin irritation in EpiDERM; format: cell-based
Description: EpiDERM™ is a 3D model of epidermis manufactured by Mattek company. The effects of tested substances are evaluated by MTT. 2 solutions (2 application forms) of the compounds 6-furfurylamino-9-β-D-arabinofuranosylpurine and 6-(3-methoxybenzylamino)-9-β-D-arabinofuranosylpurine in concentrations 1 mM a 200 microM in 0.5% DMSO/99.5% PBS were evaluated according to a standard protocol “INVITRO EpiDerm™ SKIN IRRITATION TEST”. After a preincubation of the tissues, 30 microliters of the application form solution were applied on the individual tissues. The exposition time was 60 minutes. Three tissues were used for each tested concentration as well as for controls. Following washing out of the applied solution, the tissues were incubated for 42 hour in order to allow a reparation of possible damage. In the next step, the tissue was incubated with MTT for 3 hours. The resulting formazan was extracted to isopropanol. Relative viability of the individual tissues was calculated as a percentage of viability of the average of the negative controls. Average viability of the tissues treated with 1 mM solution of the test substance was 99.3% for the compound 6-(3-methoxybenzylamino)-9-β-D-arabinofuranosylpurine and 98.0% for the compound 6-(furfurylamino)-9-β-D-arabinofuranosylpurine where 100% is an average viability of the tissues treated with the solvent only. None of the tested compounds in any of the concentrations caused any tissue damage or irritation. The compounds were evaluated as non-irritant in the tested concentrations.

## Cc1cccc(CNc2ncnc3c2ncn3C2OC(CO)C(O)C2O)c1C (centres unmarked) [2,3-dimethylbenzyl]
[1]
  activity in killing Vaccinia virus and Herpes simplex virus: No effect

## Cc1ccc(CNc2ncnc3c2ncn3C2OC(CO)C(O)C2O)c(C)c1 (centres unmarked) [2,4-dimethylbenzyl]
[2]
  activity against Vaccinia virus, strain IHD: low activity

## Cc1ccc(C)c(CNc2ncnc3c2ncn3C2OC(CO)C(O)C2O)c1 (centres unmarked) [2,5-dimethylbenzyl]
[2]
  activity against Vaccinia virus, strain IHD: low activity

## Cc1cccc(C)c1CNc1ncnc2c1ncn2[C@@H]1O[C@H](CO)[C@@H](O)[C@@H]1O [2,6-dimethylbenzyl]
[1]
  activity in killing Vaccinia virus and Herpes simplex virus: No effect

## Cc1ccccc1CNc1ncnc2c1ncn2[C@@H]1O[C@H](CO)[C@@H](O)[C@@H]1O [2-methylbenzylamino-9-β-D-arabinofuranosylpurine]
[1]
  activity in killing Vaccinia virus and Herpes simplex virus: No effect
[3]
  GI50: > 100 µM
[4]
  GI50: > 100 µM
[5]
  GI50: > 100 µM

## Cc1ccc(CNc2ncnc3c2ncn3[C@@H]2O[C@H](CO)[C@@H](O)[C@@H]2O)cc1C [3,4-dimethylbenzyl]
[1]
  activity in killing Vaccinia virus and Herpes simplex virus: No effect

## Cc1cccc(CNc2ncnc3c2ncn3[C@@H]2O[C@H](CO)[C@@H](O)[C@@H]2O)c1 [3-methylbenzylamino-9-β-D-arabinofuranosylpurine]
[1]
  activity in killing Vaccinia virus and Herpes simplex virus: No effect
[3]
  GI50: > 100 µM
[4]
  GI50: > 100 µM
[5]
  GI50: > 100 µM

## OC[C@H]1O[C@@H](n2cnc3c(NCc4ccc(Cl)cc4)ncnc32)[C@@H](O)[C@@H]1O [4-chlorobenzylamino-9-β-D-arabinofuranosylpurine]
[3]
  GI50: > 100 µM
[4]
  GI50: > 100 µM
[5]
  GI50: > 100 µM

## OC[C@H]1O[C@@H](n2cnc3c(NCc4ccc(O)cc4)ncnc32)[C@@H](O)[C@@H]1O [4-hydroxybenzylamino-9-β-D-arabinofuranosylpurine]
[3]
  GI50: > 100 µM
[4]
  GI50: > 100 µM
[5]
  GI50: 87 µM

## Cc1ccc(CNc2ncnc3c2ncn3[C@@H]2O[C@H](CO)[C@@H](O)[C@@H]2O)cc1 [4-methylbenzylamino-9-β-D-arabinofuranosylpurine]
[3]
  GI50: 95 µM
[4]
  GI50: > 100 µM
[5]
  GI50: > 100 µM

## OC[C@H]1O[C@@H](n2cnc3c(NCc4cccc(Cl)c4)ncnc32)[C@@H](O)[C@@H]1O [6-(3-chlorobenzylamino)-9-β-D-arabinofuranosylpurine]
[6]
  IC50: 48 µM
[7]
  activity (%) [10^−4 mol · l^−1 BAP = 100%]: 172 ± 8%
[8]
  IC50: > 50 µM
[9]
  GI50 at 72 h: > 100 µM
[10]
  GI50 at 72 h: > 100 µM
[11]
  GI50 at 72 h: > 100 µM

## OC[C@H]1O[C@@H](n2cnc3c(NCc4cccc(F)c4)ncnc32)[C@@H](O)[C@@H]1O [6-(3-fluorobenzylamino)-9-β-D-arabinofuranosylpurine]
[7]
  activity (%) [10^−4 mol · l^−1 BAP = 100%]: 195 ± 6%
[9]
  GI50 at 72 h: > 100 µM
[10]
  GI50 at 72 h: > 100 µM
[11]
  GI50 at 72 h: > 100 µM

## OC[C@H]1O[C@@H](n2cnc3c(NCc4ccccc4)ncnc32)C[C@@H]1O [6-benzylamino-9-β-D-deoxyribosylpurine]
[7]; 96 h in the dark at 25° C.
  maximum effective concentration: 10^−4 mol · l^−1
[7]
  activity (%) [10^−4 mol · l^−1 BAP = 100%]: 178 ± 9%
[3]
  GI50: > 100 µM
[4]
  GI50: > 100 µM
[5]
  GI50: > 100 µM

## OC[C@H]1OC(n2cnc3c(NCc4ccccc4)ncnc32)[C@H](O)[C@@H]1O (some centres unmarked) [6-benzylaminopurin9-ribosylpurine, 6-benzylamino-9-ribosylpurine, reference compound]
[8]
  IC50: ≤ 3 µM
[8]; positive controls
  toxicity in the MTT test: toxic
[9]
  GI50 at 72 h: 5.4 µM
[10]
  GI50 at 72 h: 5.5 µM
[11]
  GI50 at 72 h: 39 µM

## OC[C@H]1O[C@@H](n2cnc3c(NCc4ccco4)ncnc32)[C@@H](O)[C@@H]1O [6-furfurylamino-9-β-D-arabinofuranosylpurine]
[12]; 1 mM and 200 microM in 0.5% DMSO/99.5% PBS
  skin irritation evaluation: non-irritant
[12]; 1 mM solution, 60 minutes exposition, 100% = solvent only
  Average viability of the tissues: 98.0%
[6]
  IC50: > 50 µM
[7]
  activity (%) [10^−4 mol · l^−1 BAP = 100%]: 193 ± 1%
[8]
  IC50: > 50 µM
[9]
  GI50 at 72 h: > 100 µM
[10]
  GI50 at 72 h: > 100 µM
[11]
  GI50 at 72 h: > 100 µM
